{"source": "patent US20100190794A1", "about": "“Herbicidally Active Composition” (BASF SE, priority 2007, published 2010)", "test_in_all_cases": "greenhouse test, pre-emergence treatment", "key": {"LOLMU": {"tested_on": "LOLMU", "format": "in vivo, Lolium multiflorum", "excerpt": "(§1) The culture containers used were plastic pots containing loamy sand with approximately 3.0% of humus as substrate. The seeds of the test plants were sown separately for each species.\n(§2) For the pre-emergence treatment, the active compounds, suspended or emulsified in water, were applied directly after sowing by means of finely distributing nozzles. The containers were irrigated gently to promote germination and growth and subsequently covered with transparent plastic hoods until the plants had rooted. This cover caused uniform germination of the test plants unless this was adversely affected by the active compounds.\n(§3) Depending on the species, the plants were kept at 10-25° C. and 20-35° C., respectively. The test period extended over 2 to 4 weeks. During this time, the plants were tended and their response to the individual treatments was evaluated.\n(§4) Evaluation was carried out using a scale from 0 to 100. 100 means no emergence of the plants, or complete destruction of at least the above-ground parts, and 0 means no damage or normal course of growth. Good herbicidal activity is given at values of at least 70, and very good herbicidal activity is given at values of at least 85.\n(§5) The respective stated components A and B, and if appropriate, C were formulated as a 5% by weight or 10% by weight strength emulsion concentrate or a commercially available formulation of component B was used and, with addition of the amount of solvent system, introduced into the spray liquor used for applying the active compound. In the examples, the solvent used was water.\n(§6) The test period extended over 20 or 21 days. During this time, the plants were tended, and their reactions to the treatment with active compound was monitored.\n(§7) What was evaluated was the damage by the chemical compositions using a scale of from 0 to 100%, in comparison to the untreated control plants. 0 means no damage, and 100 means complete destruction of the plants.\n(§8) In the examples below, using the method of S. R. Colby (1967) “Calculating synergistic and antagonistic responses of herbicide combinations”, Weeds 15, p. 22 ff., the value E, which is expected if the activity of the individual active compounds is only additive, was calculated.\n(§9) where X=percent activity using active compound A at an application rate a; Y=percent activity using active compound B at an application rate b; E=expected activity (in %) by A+B at application rates a+b.\n(§10) If the value found in experiments is higher than the value E calculated according to Colby, a synergistic effect is present."}, "PHACA": {"tested_on": "PHACA", "format": "in vivo, Phalaris canariensis", "excerpt": "as §1, §2, §3, §4, §5, §6, §7, §8, §9, §10"}, "ECHCG": {"tested_on": "ECHCG", "format": "in vivo, Echinochloa crus-galli", "details": "Use Example 2", "excerpt": "as §1, §2, §3, §4, §5, §6, §7, §8, §9, §10"}, "MATIN": {"tested_on": "MATIN", "format": "in vivo, Matricaria inodora", "details": "Use Example 2", "excerpt": "as §1, §2, §3, §4, §5, §6, §7, §8, §9, §10"}, "STEME": {"tested_on": "STEME", "format": "in vivo, Stellaria media", "details": "Use Example 2", "excerpt": "as §1, §2, §3, §4, §5, §6, §7, §8, §9, §10"}, "ALOMY": {"tested_on": "ALOMY", "format": "in vivo, Alopecurus myosuroides", "excerpt": "as §1, §2, §3, §4, §5, §6, §7, §8, §9, §10"}, "PANDI": {"tested_on": "PANDI", "format": "in vivo, Panicum dichotomiflorum", "details": "62.5 g/ha a.s., Use Example 3", "excerpt": "as §1, §2, §3\nas §4, with “85. […]” for “85.”\nas §6\nWhat was evaluated was the damage by the chemical compositions using a scale of from 0 to 100%, in comparison to the untreated control plants. […]\nIn the examples below, using the method of S. R. Colby (1967) “Calculating synergistic and antagonistic responses of herbicide combinations”, Weeds 15, p. 22 ff., the value E, which is expected if the activity of the individual active compounds is only additive, was calculated. […]\nas §10"}, "CCHEC": {"tested_on": "CCHEC", "format": "in vivo, Cenchrus echinatus", "excerpt": "as §1, §2, §3, §4, §5, §6, §7, §8, §9, §10"}, "BRAPL": {"tested_on": "BRAPL", "format": "in vivo, Brachiaria plantaginea", "excerpt": "as §1, §2, §3, §4, §5, §6, §7, §8, §9, §10"}}}
{"compound": "CN1C(=O)C(C)(Cc2ccccc2)N(C)C(=O)C1=Cc1ccccc1C#N", "note": "(stereo not drawn) [Example 20, 2-[5-Benzyl-1,4,5-trimethyl-3,6-dioxopiperazin-2-ylidenemethyl]benzo-nitrile]", "values": [{"measurement": "Herbicidal action in % after 20 days against LOLMU", "setting": "LOLMU; 125 g/ha a.s., Use Example 10", "result": 0, "unit": "%"}, {"measurement": "Herbicidal action in % after 21 days against LOLMU", "setting": "LOLMU; 125 g/ha a.s., Use Example 11", "result": 0, "unit": "%"}, {"measurement": "Herbicidal action in % after 20 days against LOLMU", "setting": "LOLMU; 125 g/ha a.s., Use Example 13", "result": 0, "unit": "%"}, {"measurement": "Herbicidal action in % after 20 days against LOLMU", "setting": "LOLMU; 250 g/ha a.s., Use Example 10", "result": 45, "unit": "%"}, {"measurement": "Herbicidal action in % after 20 days against LOLMU", "setting": "LOLMU; 250 g/ha a.s., Use Example 13", "result": 45, "unit": "%"}, {"measurement": "Herbicidal action in % after 20 days against LOLMU", "setting": "LOLMU; 500 g/ha a.s., Use Example 1", "result": 70, "unit": "%"}, {"measurement": "Herbicidal action in % after 20 days against PHACA", "setting": "PHACA; 250 g/ha a.s., Use Example 4", "result": 80, "unit": "%"}, {"measurement": "Herbicidal action in % after 20 days against PHACA", "setting": "PHACA; 500 g/ha a.s., Use Example 1", "result": 80, "unit": "%"}, {"measurement": "Herbicidal action in % after 20 days against ECHCG", "setting": "ECHCG; 62.5 g/ha a.s.", "result": 70, "unit": "%"}, {"measurement": "Herbicidal action in % after 20 days against ECHCG", "setting": "ECHCG; 125 g/ha a.s.", "result": 95, "unit": "%"}, {"measurement": "Herbicidal action in % after 20 days against ECHCG", "setting": "ECHCG; 250 g/ha a.s.", "result": 100, "unit": "%"}, {"measurement": "Herbicidal action in % after 20 days against MATIN", "setting": "MATIN; 62.5 g/ha a.s.", "result": 0, "unit": "%"}, {"measurement": "Herbicidal action in % after 20 days against MATIN", "setting": "MATIN; 125 g/ha a.s.", "result": 30, "unit": "%"}, {"measurement": "Herbicidal action in % after 20 days against MATIN", "setting": "MATIN; 250 g/ha a.s.", "result": 90, "unit": "%"}, {"measurement": "Herbicidal action in % after 20 days against STEME", "setting": "STEME; 62.5 g/ha a.s.", "result": 0, "unit": "%"}, {"measurement": "Herbicidal action in % after 20 days against STEME", "setting": "STEME; 125 g/ha a.s.", "result": 20, "unit": "%"}, {"measurement": "Herbicidal action in % after 20 days against STEME", "setting": "STEME; 250 g/ha a.s.", "result": 50, "unit": "%"}, {"measurement": "Herbicidal action in % after 20 days against ALOMY", "setting": "ALOMY; 62.5 g/ha a.s., Use Example 2", "result": 45, "unit": "%"}, {"measurement": "Herbicidal action in % after 20 days against ALOMY", "setting": "ALOMY; 125 g/ha a.s., Use Example 2", "result": 55, "unit": "%"}, {"measurement": "Herbicidal action in % after 20 days against ALOMY", "setting": "ALOMY; 125 g/ha a.s., Use Example 7", "result": 40, "unit": "%"}, {"measurement": "Herbicidal action in % after 20 days against ALOMY", "setting": "ALOMY; 125 g/ha a.s., Use Example 10", "result": 45, "unit": "%"}, {"measurement": "Herbicidal action in % after 20 days against ALOMY", "setting": "ALOMY; 125 g/ha a.s., Use Example 13", "result": 45, "unit": "%"}, {"measurement": "Herbicidal action in % after 20 days against ALOMY", "setting": "ALOMY; 125 g/ha a.s., Use Example 15", "result": 40, "unit": "%"}, {"measurement": "Herbicidal action in % after 20 days against ALOMY", "setting": "ALOMY; 250 g/ha a.s., Use Example 2", "result": 85, "unit": "%"}, {"measurement": "Herbicidal action in % after 20 days against ALOMY", "setting": "ALOMY; 250 g/ha a.s., Use Example 4", "result": 85, "unit": "%"}, {"measurement": "Herbicidal action in % after 20 days against ALOMY", "setting": "ALOMY; 250 g/ha a.s., Use Example 7", "result": 90, "unit": "%"}, {"measurement": "Herbicidal action in % after 20 days against ALOMY", "setting": "ALOMY; 250 g/ha a.s., Use Example 10", "result": 70, "unit": "%"}, {"measurement": "Herbicidal action in % after 20 days against ALOMY", "setting": "ALOMY; 250 g/ha a.s., Use Example 13", "result": 70, "unit": "%"}, {"measurement": "Herbicidal action in % after 20 days against ALOMY", "setting": "ALOMY; 250 g/ha a.s., Use Example 15", "result": 90, "unit": "%"}, {"measurement": "Herbicidal action in % after 21 days against PANDI", "setting": "PANDI", "result": 95, "unit": "%"}, {"measurement": "Herbicidal action in % after 21 days against CCHEC", "setting": "CCHEC; 62.5 g/ha a.s., Use Example 3", "result": 20, "unit": "%"}, {"measurement": "Herbicidal action in % after 20 days against CCHEC", "setting": "CCHEC; 250 g/ha a.s., Use Example 16", "result": 90, "unit": "%"}, {"measurement": "Herbicidal action in % after 21 days against BRAPL", "setting": "BRAPL; 31.25 g/ha a.s., Use Example 8", "result": 20, "unit": "%"}, {"measurement": "Herbicidal action in % after 20 days against BRAPL", "setting": "BRAPL; 125 g/ha a.s., Use Example 5", "result": 70, "unit": "%"}, {"measurement": "Herbicidal action in % after 21 days against BRAPL", "setting": "BRAPL; 125 g/ha a.s., Use Example 9", "result": 80, "unit": "%"}, {"measurement": "Herbicidal action in % after 20 days against BRAPL", "setting": "BRAPL; 125 g/ha a.s., Use Example 12", "result": 55, "unit": "%"}]}
